{
  "source": "patent US9429582B2",
  "about": "“Tyrosine-phosphorylated WBP2, a novel cancer target and biomarker” (National University of Singapore, priority 2010, dated 2016)",
  "format_in_all_cases": "cell-based, human",
  "key": {"[1]": {"test_system": "ERα", "experiment": "Immunoblot of ERα expression in drug-treated WBP2-Y192-231E mutant-expressing MCF7", "conditions": "Y192-231E-expressing MCF7; 2 μM Tam and/or 15 μM FH535; day 2-4 post-treatment", "description": "For cells co-transfected ERE-luciferase, they were either left alone or stimulated with 50 ng/ml Wnt3a ligand for 16 hrs. TCF/ERα luciferase activities in various conditions were then assayed. **P<0.01, ***P<0.001, Student's t-test (2-tailed). […] Cell numbers were measured.\nTheir expression levels were quantified in three independent experiments and the averages were presented relative to actin. […] For cells co-transfected ERE luciferase, they were either left alone or stimulated with 50 ng/ml Wnt3a ligand for 16 hrs. TCF(C)/ER[…](D) luciferase activities in various conditions were then assayed and analyzed in relative to untreated vector control. **P<0.01, ***P<0.001, Student's t-test (2-tailed). […] Cell numbers were measured daily and compared in relative to vehicle treated vector-expressing cells on Day 0. […] Cell numbers were measured and compared in relative to vehicle-treated cells. […] Cell numbers were measured on day 2 and day 4 and compared in relative to vehicle-treated control at each day (Top Panel). These treated cells were harvested for IB analysis with antibodies indicated (Bottom Panel).\nFirst, we exposed WBP2 phospho-mimic expressing MCF7 cells to serial concentrations of fulvestrant (0.1 nM, 1 nM, 10 nM, 100 nM and 1 μM) and probed for ERα expression to determine the effective working concentration. […] Next, we compared the growth and proliferation of WBP2 phospho-mimic mutant expressing MCF7 in the presence of 100 nM fulvestrant or 15 μM FH535."}, "[2]": {"test_system": "vector-expressing MCF7", "experiment": "Cell proliferation (MTS / cell numbers) of vector-expressing MCF7", "description": "A: Whole cell lysates from vector, WBP2-WT, WBP2-Y192-231E mutant and WBP2-Y192-231F mutant expressing MCF7 or Y192-231E mutant expressing MCF7 with WBP2 knockdown were used for IB analysis with antibodies indicated. B: Vector, WBP2-WT, WBP2-Y192-231E mutant or WBP2-Y192-231F mutant-expressing MCF7 were co-transfected with TOPFlash (top panel) or ERE-Luciferase (bottom panel) reporter construct. For cells co-transfected ERE-luciferase, they were either left alone or stimulated with 50 ng/ml Wnt3a ligand for 16 hrs. TCF/ERα luciferase activities in various conditions were then assayed. **P<0.01, ***P<0.001, Student's t-test (2-tailed). C: Vector or WBP2-Y192-231E mutant-expressing MCF7 were treated with indicated concentrations of Tamoxifen(Tam) and/or FH535. Cell numbers were measured. D: Whole cell lysates from WBP2-Y192-231E mutant-expressing MCF7 treated with 2 μM Tam and/or 15 μM FH5353 were harvested at day 2-4 post-treatment and used for IB analysis with antibodies indicated.\nWhole cell lysates from vector, WBP2-WT, WBP2-Y192-231E mutant and WBP2-Y192-231F mutant expressing MCF7 (A) or Y192-231E mutant expressing MCF7 with WBP2 knockdown (B) were used for IB analysis with antibodies indicated. Their expression levels were quantified in three independent experiments and the averages were presented relative to actin. Representative blots (order in lanes from left to right: vector, WBP2, Y192-231E, Y192F) were presented as insets to the bar graphs. **P<0.01, ***P<0.001, Student's t-test (2-tailed) relative to vector. […] TCF(C)/ER[…](D) luciferase activities in various conditions were then assayed and analyzed in relative to untreated vector control. **P<0.01, ***P<0.001, Student's t-test (2-tailed). […] Cell numbers were measured daily and compared in relative to vehicle treated vector-expressing cells on Day 0. […] Cell numbers were measured and compared in relative to vehicle-treated cells. Their […] were analyzed statistically with SPSS 13.0. […] Cell numbers were measured on day 2 and day 4 and compared in relative to vehicle-treated control at each day (Top Panel). […]"}, "[3]": {"test_system": "TCF/β-catenin signaling", "experiment": "TCF reporter activity / β-catenin recruitment in Y192-231E-expressing MCF7", "conditions": "preliminary study, data not shown", "description": "The Dual-Luciferase TM reporter assay system (Promega) was used for sequential measurement of Firefly and Renilla luciferase activities according to manufacturer's instructions. Quantification of luciferase activities were carried out using a luminometer (Sirius).\nThe Dual-Luciferase TM reporter assay system (Promega) was used for sequential measurement of Firefly and Renilla luciferase activities according to manufacturer's instructions. Quantification of luciferase activities were carried out using a luminometer (Sirius, Berthold-DS Inc, Germany). Briefly, transfected cells in 24-well plate were rinsed once with ice-cold PBS and lysed in 1× Passive Lysis Buffer (PLB) for 15 min at RT. The crude lysate was first incubated with Luciferase Assay Substrate (LAR II) to measure the firefly luciferase activity, followed by incubation with Stop and Glo Substrate to measure the Renilla luciferase activity.\nNext, we examined the relative contributions of ERα and Wnt pathway to WBP2-mediated cellular proliferation. […] Even at higher doses of up to 2000 nM, retardation of proliferation by Tamoxifen of Y192-231E-expressing cells remains unremarkable. FH535 is a recently identified small-molecule inhibitor of TCF/β-catenin signaling (31). […] No synergistic effect could be observed when Tamoxifen and FH535 were administered in combination."}},
  "note": "“Also recorded” adds a separate entry of the source.",
  "data": [
    {"smiles": "Cc1cc([N+](=O)[O-])ccc1NS(=O)(=O)c1cc(Cl)ccc1Cl", "note": "[FH535]", "values": [
      {"measurement": "ERα expression", "setting": "[1]", "value": "significantly reduced; also recorded: reducing"},
      {"measurement": "inhibition of growth / reduction of proliferation", "setting": "[2]; MCF7 cells expressing vector, day 4, 100 nM fulvestrant or 15 μM FH535", "value": "about 30%"},
      {"measurement": "growth inhibition, dose dependence", "setting": "[2]; vector stable transfectant, 0-50 μM FH535 for 2 days", "value": "dose dependent growth inhibition"},
      {"measurement": "TCF activity reduced", "setting": "[3]; 24-hr post-treatment with 15 μM FH535 in Y192-231E-expressing MCF7", "value": 50, "unit": "%"},
      {"measurement": "recruitment of β-catenin", "setting": "[3]", "value": "inhibits"}
    ]}
  ]
}
